In ChEMBL document CHEMBL5329153, “Is structural hybridization invoking new dimensions for antimalarial drug discovery research?” (RSC Med Chem, 2023):
≈ marks a conversion by molar mass, not a printed value.

Each compound was assayed on Plasmodium falciparum (assay: Antimalarial activity against Plasmodium falciparum 3D7 assessed as parasitic growth inhibition).
Type: functional, organism-based

| Compound | EC50 [nM] | IC50 [mg/L] |
| --- | --- | --- |
| C[C@H]1[C@@H](OCCCCc2cn(-c3cccc4cc(Cl)ccc34)nn2)O[C@@H]2O[C@]3(C)CC[C@H]4[C@H](C)CC[C@@H]1[C@@]24OO3 | 8.4 |  |
| C[C@H]1[C@H](OC(=O)CCC(=O)NCCNc2ccnc3cc(Cl)ccc23)O[C@@H]2O[C@]3(C)CC[C@H]4[C@H](C)CC[C@@H]1[C@@]24OO3 | 2.7 |  |
| C[C@H]1[C@H](OC(=O)CCC(=O)OCCNc2ccnc3cc(Cl)ccc23)O[C@@H]2O[C@]3(C)CC[C@H]4[C@H](C)CC[C@@H]1[C@@]24OO3 | 4.5 |  |
| C#CCCCN(CCNc1ccnc2cc(Cl)ccc12)C(=O)CCC(=O)O[C@@H]1O[C@@H]2O[C@]3(C)CC[C@H]4[C@H](C)CC[C@@H]([C@H]1C)[C@@]24OO3 | 3.5 |  |
| C[C@H]1[C@H](OC(=O)CCC(=O)OCCCc2cn(-c3ccnc4cc(Cl)ccc34)nn2)O[C@@H]2O[C@]3(C)CC[C@H]4[C@H](C)CC[C@@H]1[C@@]24OO3 | 5.4 |  |
| C[C@H]1[C@@H](OCc2cn(-c3cccc4cc(Cl)ccc34)nn2)O[C@@H]2O[C@]3(C)CC[C@H]4[C@H](C)CC[C@@H]1[C@@]24OO3 | 9 |  |
| C[C@H]1[C@H](OC(=O)CCC(=O)OCCCCc2cn(-c3ccnc4cc(Cl)ccc34)nn2)O[C@@H]2O[C@]3(C)CC[C@H]4[C@H](C)CC[C@@H]1[C@@]24OO3 | 6.2 |  |
| C#CCCCC(C(=O)NCCOC(=O)CCC(=O)O[C@@H]1O[C@@H]2O[C@]3(C)CC[C@H]4[C@H](C)CC[C@@H]([C@H]1C)[C@@]24OO3)c1ccnc2cc(Cl)ccc12 (stereo partly specified) | 6 |  |
| Cc1nc(-c2ccccc2)c(-c2ccccc2)c2cc(-c3cn(CCOC(=O)CCC(=O)O[C@@H]4O[C@@H]5O[C@]6(C)CC[C@H]7[C@H](C)CC[C@@H]([C@H]4C)[C@@]57OO6)nn3)ccc12 | 5.3 |  |
| CN(C)c1nc(N)nc(NCCNc2ccnc3cc(Cl)ccc23)n1 |  | 46.3 (≈ 129 µM) |
| C[C@H]1[C@@H](OCCc2cn(-c3cccc4cc(Cl)ccc34)nn2)O[C@@H]2O[C@]3(C)CC[C@H]4[C@H](C)CC[C@@H]1[C@@]24OO3 | 8.8 |  |
| CCCCc1nc(C)c2ccc(-c3cn(CCOC(=O)CCC(=O)O[C@@H]4O[C@@H]5O[C@]6(C)CC[C@H]7[C@H](C)CC[C@@H]([C@H]4C)[C@@]57OO6)nn3)cc2c1CCCC | 9.2 |  |
| C[C@H]1[C@@H](OCCCc2cn(-c3cccc4cc(Cl)ccc34)nn2)O[C@@H]2O[C@]3(C)CC[C@H]4[C@H](C)CC[C@@H]1[C@@]24OO3 | 9.4 |  |
| C[C@H]1[C@H](OC(=O)CCC(=O)OCc2cn(-c3ccnc4cc(Cl)ccc34)nn2)O[C@@H]2O[C@]3(C)CC[C@H]4[C@H](C)CC[C@@H]1[C@@]24OO3 (racemic) | 5.3 |  |

The compounds below were run on Plasmodium falciparum (assay: Antimalarial activity against Chloroquine sensitive Plasmodium falciparum RKL-2 assessed as parasitic growth inhibition measured after 36 to 40 hrs by Giemsa staining based assay).
Type: functional, organism-based

| Compound | IC50 [mg/L] |
| --- | --- |
| CC.Fc1ccc(Nc2nc(NCCCNc3ccnc4cc(Cl)ccc34)nc(Nc3ccc(F)cc3)n2)cc1 | 51.5 |
| Fc1ccc(Nc2nc(NCCCNc3ccnc4cc(Cl)ccc34)nc(Nc3ccc(F)c(Cl)c3)n2)cc1Cl | 56 (≈ 93 µM) |
| Clc1ccc2c(NCCCNc3nc(Nc4ccc(N5CCOCC5)cc4)nc(Nc4ccc(N5CCOCC5)cc4)n3)ccnc2c1 | 47.5 (≈ 71.2 µM) |

What follows are compounds tested on Plasmodium falciparum (assay: Antimalarial activity against Plasmodium falciparum assessed as parasitic growth inhibition).
Type: functional, organism-based

| Compound | IC50 [mg/L] |
| --- | --- |
| Cc1nc2ccccc2c(C)c1C(=O)NNC(=S)Nc1ccc(Cl)c(Cl)c1 | 0.19 (≈ 0.453 µM) |
| Cc1nc2ccccc2c(C)c1C(=O)NNC(=S)NC(C)(C)C | 0.25 (≈ 0.757 µM) |
| CCNC(=S)NNC(=O)c1c(C)nc2ccccc2c1C | 0.15 (≈ 0.496 µM) |
| Cc1nc2ccccc2c(C)c1C(=O)NNC(=S)Nc1ccc(Cl)cc1 | 0.15 (≈ 0.39 µM) |
| COc1cccc(NC(=S)NNC(=O)c2c(C)nc3ccccc3c2C)c1 | 0.1 (≈ 0.263 µM) |
| Cc1nc2ccccc2c(C)c1C(=O)NNC(N)=S | 0.19 (≈ 0.693 µM) |
| Cc1nc2ccccc2c(C)c1C(=O)NNC(=S)Nc1ccc(F)cc1F | 0.26 (≈ 0.673 µM) |
| Cc1nc2ccccc2c(C)c1C(=O)NNC(=S)Nc1ccc([N+](=O)[O-])cc1 | 0.25 (≈ 0.632 µM) |

These compounds were tested on Plasmodium falciparum (assay: Antimalarial activity against Plasmodium falciparum K1 assessed as parasitic growth inhibition).
Type: functional, organism-based

| Compound | EC50 [nM] |
| --- | --- |
| C[C@H]1[C@@H](OCCCCc2cn(-c3cccc4cc(Cl)ccc34)nn2)O[C@@H]2O[C@]3(C)CC[C@H]4[C@H](C)CC[C@@H]1[C@@]24OO3 | 3.7 |
| C[C@H]1[C@H](OC(=O)CCC(=O)NCCNc2ccnc3cc(Cl)ccc23)O[C@@H]2O[C@]3(C)CC[C@H]4[C@H](C)CC[C@@H]1[C@@]24OO3 | 0.78 |
| C[C@H]1[C@H](OC(=O)CCC(=O)OCCNc2ccnc3cc(Cl)ccc23)O[C@@H]2O[C@]3(C)CC[C@H]4[C@H](C)CC[C@@H]1[C@@]24OO3 | 1.7 |
| C#CCCCN(CCNc1ccnc2cc(Cl)ccc12)C(=O)CCC(=O)O[C@@H]1O[C@@H]2O[C@]3(C)CC[C@H]4[C@H](C)CC[C@@H]([C@H]1C)[C@@]24OO3 | 1.3 |
| C[C@H]1[C@H](OC(=O)CCC(=O)OCCCc2cn(-c3ccnc4cc(Cl)ccc34)nn2)O[C@@H]2O[C@]3(C)CC[C@H]4[C@H](C)CC[C@@H]1[C@@]24OO3 | 2.4 |
| C[C@H]1[C@@H](OCc2cn(-c3cccc4cc(Cl)ccc34)nn2)O[C@@H]2O[C@]3(C)CC[C@H]4[C@H](C)CC[C@@H]1[C@@]24OO3 | 4.3 |
| C[C@H]1[C@H](OC(=O)CCC(=O)OCCCCc2cn(-c3ccnc4cc(Cl)ccc34)nn2)O[C@@H]2O[C@]3(C)CC[C@H]4[C@H](C)CC[C@@H]1[C@@]24OO3 | 2.5 |
| C#CCCCC(C(=O)NCCOC(=O)CCC(=O)O[C@@H]1O[C@@H]2O[C@]3(C)CC[C@H]4[C@H](C)CC[C@@H]([C@H]1C)[C@@]24OO3)c1ccnc2cc(Cl)ccc12 (stereo partly specified) | 2.2 |
| Cc1nc(-c2ccccc2)c(-c2ccccc2)c2cc(-c3cn(CCOC(=O)CCC(=O)O[C@@H]4O[C@@H]5O[C@]6(C)CC[C@H]7[C@H](C)CC[C@@H]([C@H]4C)[C@@]57OO6)nn3)ccc12 | 3.3 |
| C[C@H]1[C@@H](OCCc2cn(-c3cccc4cc(Cl)ccc34)nn2)O[C@@H]2O[C@]3(C)CC[C@H]4[C@H](C)CC[C@@H]1[C@@]24OO3 | 2 |
| CCCCc1nc(C)c2ccc(-c3cn(CCOC(=O)CCC(=O)O[C@@H]4O[C@@H]5O[C@]6(C)CC[C@H]7[C@H](C)CC[C@@H]([C@H]4C)[C@@]57OO6)nn3)cc2c1CCCC | 4.2 |
| C[C@H]1[C@@H](OCCCc2cn(-c3cccc4cc(Cl)ccc34)nn2)O[C@@H]2O[C@]3(C)CC[C@H]4[C@H](C)CC[C@@H]1[C@@]24OO3 | 3.8 |
| C[C@H]1[C@H](OC(=O)CCC(=O)OCc2cn(-c3ccnc4cc(Cl)ccc34)nn2)O[C@@H]2O[C@]3(C)CC[C@H]4[C@H](C)CC[C@@H]1[C@@]24OO3 (racemic) | 1.8 |

Each compound was assayed on Plasmodium falciparum (assay: Antimalarial activity against Plasmodium falciparum Dd2 assessed as parasitic growth inhibition).
Type: functional, organism-based

| Compound | EC50 [nM] |
| --- | --- |
| C[C@H]1[C@@H](OCCCCc2cn(-c3cccc4cc(Cl)ccc34)nn2)O[C@@H]2O[C@]3(C)CC[C@H]4[C@H](C)CC[C@@H]1[C@@]24OO3 | 6.1 |
| C[C@H]1[C@H](OC(=O)CCC(=O)NCCNc2ccnc3cc(Cl)ccc23)O[C@@H]2O[C@]3(C)CC[C@H]4[C@H](C)CC[C@@H]1[C@@]24OO3 | 1 |
| C[C@H]1[C@H](OC(=O)CCC(=O)OCCNc2ccnc3cc(Cl)ccc23)O[C@@H]2O[C@]3(C)CC[C@H]4[C@H](C)CC[C@@H]1[C@@]24OO3 | 2.3 |
| C#CCCCN(CCNc1ccnc2cc(Cl)ccc12)C(=O)CCC(=O)O[C@@H]1O[C@@H]2O[C@]3(C)CC[C@H]4[C@H](C)CC[C@@H]([C@H]1C)[C@@]24OO3 | 1.6 |
| C[C@H]1[C@H](OC(=O)CCC(=O)OCCCc2cn(-c3ccnc4cc(Cl)ccc34)nn2)O[C@@H]2O[C@]3(C)CC[C@H]4[C@H](C)CC[C@@H]1[C@@]24OO3 | 4.6 |
| C[C@H]1[C@@H](OCc2cn(-c3cccc4cc(Cl)ccc34)nn2)O[C@@H]2O[C@]3(C)CC[C@H]4[C@H](C)CC[C@@H]1[C@@]24OO3 | 5.9 |
| C[C@H]1[C@H](OC(=O)CCC(=O)OCCCCc2cn(-c3ccnc4cc(Cl)ccc34)nn2)O[C@@H]2O[C@]3(C)CC[C@H]4[C@H](C)CC[C@@H]1[C@@]24OO3 | 4.4 |
| C#CCCCC(C(=O)NCCOC(=O)CCC(=O)O[C@@H]1O[C@@H]2O[C@]3(C)CC[C@H]4[C@H](C)CC[C@@H]([C@H]1C)[C@@]24OO3)c1ccnc2cc(Cl)ccc12 (stereo partly specified) | 4.8 |
| Cc1nc(-c2ccccc2)c(-c2ccccc2)c2cc(-c3cn(CCOC(=O)CCC(=O)O[C@@H]4O[C@@H]5O[C@]6(C)CC[C@H]7[C@H](C)CC[C@@H]([C@H]4C)[C@@]57OO6)nn3)ccc12 | 4.8 |
| C[C@H]1[C@@H](OCCc2cn(-c3cccc4cc(Cl)ccc34)nn2)O[C@@H]2O[C@]3(C)CC[C@H]4[C@H](C)CC[C@@H]1[C@@]24OO3 | 4.5 |
| CCCCc1nc(C)c2ccc(-c3cn(CCOC(=O)CCC(=O)O[C@@H]4O[C@@H]5O[C@]6(C)CC[C@H]7[C@H](C)CC[C@@H]([C@H]4C)[C@@]57OO6)nn3)cc2c1CCCC | 10 |
| C[C@H]1[C@@H](OCCCc2cn(-c3cccc4cc(Cl)ccc34)nn2)O[C@@H]2O[C@]3(C)CC[C@H]4[C@H](C)CC[C@@H]1[C@@]24OO3 | 5.1 |
| C[C@H]1[C@H](OC(=O)CCC(=O)OCc2cn(-c3ccnc4cc(Cl)ccc34)nn2)O[C@@H]2O[C@]3(C)CC[C@H]4[C@H](C)CC[C@@H]1[C@@]24OO3 (racemic) | 4.2 |
